Values of other authors, collected in patent US20020160961A1, “Compositions for the treatment of the catabolic state of prolonged critical illness” (priority 1999, published 2002).

Test system: pulsatile TSH secretion
Conditions: TRH infused together with GHRP-2; catabolic state of prolonged critical illness

## NC(=O)[C@@H]1CCCN1C(=O)[C@H](Cc1cnc[nH]1)NC(=O)[C@@H]1CCC(=O)N1 [TRH, thyrotropin-releasing hormone]
  pulsatile TSH secretion: increased pulsatile TSH secretion
